Common to all, as to assay: growth of human tumour cells (NCI), 48 h
In experiment [1] the test system is EKVX NSCLC.
Experiment [2] relates to SF-268 CNS.
Experiment [3] relates to A549 NSCLC.
The test system of experiment [4] is COLO 205 colon.
In experiment [5] the test system is HL-60(TB) leukemia.
Experiment [6] concerns HCT-15 colon.
The test system of experiment [7] is MALME-3M melanoma.
The test system of experiment [8] is SK-MEL-5 melanoma.

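Compound exposure: 48 hours, 5 concentrations, 96-well plates. GI50 marks 50% less growth. TGI is the concentration that stops growth completely.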

On to `CNC(=O)C1CCc2nnc(-c3ccccc3)n21` (stereo unspecified), for which the TGI in experiment [1], in experiment [2], in experiment [3], in experiment [4], in experiment [5] and in experiment [6] was > 100 µM each time. In addition, the TGI in experiment [7] and in experiment [8] was > 100 µM each time.

Take `O=C(N/C(=C\c1cccc([N+](=O)[O-])c1)c1nc2ccc([N+](=O)[O-])cc2[nH]1)c1ccccc1`: the TGI in experiment [1], in experiment [2], in experiment [3], in experiment [4], in experiment [6] and in experiment [7] was > 100 µM each time. Also, the TGI in experiment [8] is 43.7 µM.

For `CC(C)(C)c1cc(CCC(=O)Nc2ccc(Cl)cc2)nc(NC#N)n1`, the TGI in experiment [1], in experiment [2], in experiment [3], in experiment [4], in experiment [5] and in experiment [6] was > 100 µM each time.

Turning to `CCOC(=O)/C(C#N)=C/c1[nH]c(C(=O)OCc2ccccc2)c(C)c1C`, the TGI in experiment [1], in experiment [2], in experiment [3], in experiment [4], in experiment [5] and in experiment [6] was > 100 µM throughout. Also, the TGI in experiment [7] and in experiment [8] was > 100 µM each time.

For the compound `O=C(Nc1ccc(-c2nc(N3CCOCC3)c3cccn3n2)cc1)Nc1cccnc1`, the GI50 in experiment [1] was 0.216 µM; in experiment [2], 0.248 µM; in experiment [3], 0.244 µM; in experiment [5], 0.359 µM; in experiment [6], 0.143 µM; in experiment [7], 0.082 µM. Further, in experiment [8], the GI50 was 0.196 µM. The TGI in experiment [1] is 0.975 µM; in experiment [2] it was 87.6 µM; in experiment [3], > 100 µM; in experiment [5] it was > 100 µM; in experiment [6], > 100 µM; in experiment [7], 0.471 µM. For the same compound, the TGI in experiment [8] is 0.847 µM.

For the compound `CN(C)CCNC(=O)c1cccc2ccc(-c3ccncc3)nc12`, the TGI in experiment [1] came to 13.4 µM; in experiment [2] it was 21.7 µM; in experiment [4] it was 7.26 µM; in experiment [5] it was 7.59 µM; in experiment [6], 11.9 µM; in experiment [8] it was 3.54 µM.

For `O=C(CC1C(=O)NN(c2ccc(Br)cc2)C1=O)c1cc(O)ccc1O` (stereo unspecified), the GI50 in experiment [1] was 27.8 µM; in experiment [2] it was 29 µM; in experiment [3], > 50 µM; in experiment [4], 23.3 µM; in experiment [5], 23.5 µM; in experiment [6], 8.5 µM. Moreover, the GI50 in experiment [8] is 18.6 µM. Besides, the TGI in experiment [1] is > 50 µM; in experiment [2], > 50 µM; in experiment [3] it was > 50 µM; in experiment [4], > 50 µM; in experiment [5] it was > 50 µM; in experiment [6], 20 µM. Besides, the TGI in experiment [8] was > 50 µM.

As for `Cc1ccc(NC(=O)CC(=O)n2nc(C)c(N=Nc3ccccc3C(=O)O)c2C)cc1`, the TGI in experiment [1], in experiment [2], in experiment [3], in experiment [4], in experiment [5] and in experiment [6] was > 100 µM in each case. Further, the TGI in experiment [7] and in experiment [8] was > 100 µM throughout.

As for `NC12CC3CC(C1)CC(C(=O)O)(C3)C2`, the TGI in experiment [1], in experiment [2], in experiment [3], in experiment [5], in experiment [6] and in experiment [8] was > 100 µM in each case.

With `CC(SC(=S)N1CCOCC1)c1cc2oc(=O)n(C)c2cc1Cl` (stereo unspecified), the TGI in experiment [1], in experiment [2], in experiment [3], in experiment [4], in experiment [5] and in experiment [6] was > 100 µM throughout. Further, the TGI in experiment [7] and in experiment [8] was > 100 µM each time.

Regarding `CCC[CH2][Sn]1([CH2]CCC)[O]C(=O)CN=Cc2c(ccc3ccccc23)[O]1`, the GI50 was 0.552 µM in experiment [1]; 0.351 µM in experiment [2]; 1.74 µM in experiment [3]; 0.401 µM in experiment [4]; 0.491 µM in experiment [6]; 0.134 µM in experiment [7]. In addition, in experiment [8], the GI50 was 1.81 µM. For the same compound, the TGI stood at 1.86 µM in experiment [1]; 1.18 µM in experiment [2]; 3.4 µM in experiment [3]; 1.47 µM in experiment [4]; 1.75 µM in experiment [6]; 0.464 µM in experiment [7]. Also, the TGI in experiment [8] is > 100 µM.

As to `C/C(CC(=O)Nc1cc(C)ccc1C)=N\NC(=O)c1ccncc1`, the TGI in experiment [1], in experiment [2], in experiment [3], in experiment [4], in experiment [5] and in experiment [7] was > 100 µM throughout. Further, the TGI in experiment [8] is > 100 µM.

With `COc1ccc(NC(=O)CC(=O)N/N=C/c2ccc(N(CCC#N)S(C)(=O)=O)cc2)cc1`, the TGI in experiment [1], in experiment [2], in experiment [3], in experiment [4], in experiment [6] and in experiment [7] was > 100 µM each time. In addition, in experiment [8], the TGI was > 100 µM.

For the compound `NC1=NC(c2ccccc2)CC(c2cc(Cl)ccc2O)=N1` (stereo unspecified), the TGI was determined as 29.5 µM in experiment [1]; 30.8 µM in experiment [2]; 29 µM in experiment [3]; 33.7 µM in experiment [4]; 40.1 µM in experiment [5]; 38 µM in experiment [7].

Regarding `COc1cc(Nc2nc3ccccc3nc2-c2cccs2)cc(OC)c1OC`, the TGI was > 100 µM in experiment [1]; > 100 µM in experiment [2]; > 100 µM in experiment [3]; > 10 µM in experiment [4]; > 100 µM in experiment [5]; > 100 µM in experiment [6]. In addition, the TGI in experiment [7] is > 100 µM.
